Tests used:
[1] = molecular target: trypsin IV (mesotrypsin); conditions: versus trypsin IV (mesotrypsin); cited from earlier work
[2] = molecular target: T1, mesotrypsin (Homo sapiens, UniProt P35030); test: Competitive inhibition assay with N-Cbz-Gly-Pro-Arg-pNA, mesotrypsin; format: biochemical; conditions: for Ki: 0.25 nM enzyme, 37°C, pH 8.0, global fit to competitive inhibition, duplicate independent experiments
T1 construct: made in house; host or cells: E. coli
T1 sequence (P35030 81-304 limits assumed): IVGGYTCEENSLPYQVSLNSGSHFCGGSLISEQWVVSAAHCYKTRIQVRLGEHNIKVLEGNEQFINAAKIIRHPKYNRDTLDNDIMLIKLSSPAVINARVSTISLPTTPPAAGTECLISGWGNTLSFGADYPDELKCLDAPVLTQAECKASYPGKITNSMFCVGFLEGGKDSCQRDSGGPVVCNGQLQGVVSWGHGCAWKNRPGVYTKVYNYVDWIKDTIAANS
Description: (§1) Recombinant human anionic trypsinogen, human cationic trypsinogen and human mesotrypsinogen were expressed in E. coli, extracted from inclusion bodies, refolded, purified and activated with bovine enteropeptidase as described in previous work.
(§2) Active mesotrypsin was quantified by active site titration as described in [21] using 4-nitrophenyl-4-guanidinobenzoate (NPGB) from Sigma. Concentrations of colorimetric peptide reporter substrate N-Cbz-Gly-Pro-Arg-pNA (Sigma) for the activity and competitive inhibition assay were determined by end point assay. Working stocks for compounds were diluted in dimethylsulfoxide (DMSO) and stored at -20°C. Compounds were assessed for mesotrypsin inhibitory activity in reactions carried out in cuvettes at 37°C in a Varian Cary-100 spectrophotometer. Reactions consisted of 0.25 nM enzyme, 100 μM reporter substrate, 100 mM Tris-HCl pH 8.0, 1 mM CaCl2, and a compound concentration range between 50 nM to 500 μM in the assay. Reactions were followed for approximately three minutes, with the initial rates determined by the linear increase in absorbance resulting from para-nitroaniline production (ε410 = 8480 M^-1 cm^-1). Absorbance versus compound concentration was plotted on a Linear-Log scale to determine IC50.
(§3) The competitive inhibition assay reactions consisted of 0.25 nM enzyme, five reporter substrate concentrations between 10 μM-200 μM, and five inhibitory compound concentrations between 1–30 μM. Reactions were followed for approximately 3 minutes, and the initial rate data were globally fitted using Prism (GraphPad Software, San Diego CA) by non-linear regression based on Eq 1. Results are from duplicate independent experiments.
(§4) V= Kcat[E]o[S]/Km (1+[I]/Ki)+[S] (1)

[3] = molecular target: T2, trypsin 2 (anionic trypsin) (Homo sapiens, UniProt P07478); test: Competitive inhibition assay, anionic trypsin; format: biochemical; conditions: human trypsin 2
T2 construct: made in house; host or cells: E. coli
T2 sequence (P07478 24-247): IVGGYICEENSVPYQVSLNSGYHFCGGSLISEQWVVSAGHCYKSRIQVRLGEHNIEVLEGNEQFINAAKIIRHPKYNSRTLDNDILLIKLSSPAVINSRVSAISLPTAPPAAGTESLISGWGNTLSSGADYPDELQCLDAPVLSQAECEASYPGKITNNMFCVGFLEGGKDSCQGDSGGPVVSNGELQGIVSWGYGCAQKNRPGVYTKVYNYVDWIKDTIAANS
Protocol: (§5) To assess compound selectivity we determined Ki for the three compounds towards related human trypsin isoforms trypsin 1 (cationic trypsin) and trypsin 2 (anionic trypsin).
as §1, §3, §4

[4] = molecular target: T3, trypsin 1 (cationic trypsin) (Homo sapiens, UniProt P07477); test: Competitive inhibition assay, cationic trypsin; format: biochemical; conditions: human trypsin 1
T3 construct: made in house; host or cells: E. coli
Protocol: as §5, §1, §3, §4

[5] = molecular target: T1, mesotrypsin; test: Mesotrypsin activity assay (colorimetric, N-Cbz-Gly-Pro-Arg-pNA); format: biochemical; conditions: 0.25 nM enzyme, 100 μM substrate, compound 50 nM to 500 μM, 37°C
Protocol: Compounds were tested by an in vitro activity assay utilizing the colorimetric peptide reporter substrate N-Cbz-Gly-Pro-Arg-pNA. The assay monitors the rate of para-nitroaniline production after substrate cleavage by mesotrypsin.
as §1
as §2, with “Reactions consisted of 0.25 nM enzyme, 100 μM reporter substrate, 100 mM Tris-HCl pH 8.0, 1 mM CaCl2, and a compound concentration range between 50 nM to 500 μM in the assay.” left out

Row | Ki [2] | inhibition mode ([2]; multiple substrate and compound concentrations, Lineweaver-Burk) | Ki [3] | Ki [4] | inhibitory activity towards mesotrypsin [5] | SMILES | Ki [1]
1 |  |  |  |  |  | N=C(N)c1ccccc1 [Benzamidine] | 22 µM
2 | 3.66 µM | competitive inhibitor | 2290 ± 210 nM | 3.44 ± 0.41 µM | low micromolar range | N=C(N)c1ccc(/N=N/Nc2ccc(C(=N)N)cc2)cc1 [Diminazene] | 
3 | 10.6 µM |  | 1700 ± 50 nM | 3.35 ± 0.35 µM | low micromolar range | N=C(N)c1ccc(/C=C/c2ccc(C(=N)N)cc2O)cc1 [Hydroxystilbamidine, hydroxystilbamidine] | 
4 | 5.1 µM |  | 1060 ± 10 nM | 3.12 ± 0.6 µM |  | N=C(N)c1ccc(OCCCCCOc2ccc(C(=N)N)cc2)cc1 [Pentamidine, pentamidine] | 

Source: publication PMC5413004, “Small molecule inhibitors of mesotrypsin from a structure-based docking screen” (PLoS ONE, 2017)
